# Measurements: patent US11413278B2, “Compounds and methods for promoting stress resistance” (priority 2015, dated 2022)
# Entries after “also recorded” stand apart in the source; their conditions may differ. Read-outs that look alike come from different tables or passages of the source.
# How the values were obtained:
# Format in all cases: cell-based, human
# NRF2 = assay: in vitro
# mTOR = mTOR inhibition (RPS6 phosphorylation status), In-Cell Western
# Procedure, shortened: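 Read-out is In-Cell Western near-infrared imaging of phospho-RPS6 (Ser-235/236) against total RPS6, using overnight 4° C primary staining and DyLight 680/800 secondaries. Compounds were given to WI-38 cells for 24 hrs at three doses: 5, 10 and 20 μM.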
# WI-38 cells = assay: Propidium iodide (PI) cell-death imaging upon H2O2 stress; conditions: for Assay 7: H2O2-resistant, at 10 uM, validated by propidium iodide (PI) cell-death imaging: w/H2O2, 3 hrs/4 hrs/5 hrs, YES/NO; for cytotoxicity at 10 µM: Homo sapiens, WI-38
# FOXO3 = assay: qPCR analysis of FOXO3-regulated genes; conditions: for Induction of at least two of five FOXO3-regulated genes (SOD2, GADD45A, CAT, DDB1, TXNIP): WI-38; for fold induction at 10 µM: Homo sapiens; for K = Sestrin induction: score
# Procedure, shortened: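 FOXO3 target-gene expression quantified by qPCR normalised to B2M, PPIA and GAPDH, in WI-38 cells after 24 h exposure to 10 μM compound. Some runs used cells first transfected 36 h with 10 nM FOXO3 or NRF2 siRNA and replated ~24 h before dosing.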
# [1] = H2O2 3 hrs, 10 uM, n = 6, negative control 5.44% ± 0.79%, read-out: Percentage of propidium iodide-positive dead cells (under H2O2 stress treatment), 3 hrs
# [2] = H2O2 4 hrs, 10 uM, n = 6, negative control 16.81% ± 1.42%, read-out: Percentage of propidium iodide-positive dead cells (under H2O2 stress treatment), 4 hrs
# [3] = H2O2 5 hrs, 10 uM, n = 6, negative control 22.50% ± 1.53%, read-out: Percentage of propidium iodide-positive dead cells (under H2O2 stress treatment), 5 hrs
# [4] = pre-treatment at 10 uM, 3.5 hours of H2O2, DMSO control 27.4% ± 6.5%, */**/*** = reduced by one/two/three standard deviations, read-out: Percentage of propidium iodide-positive dead cells (under H2O2 stress treatment), at 10 uM
# [5] = 24 h, Assay 10(m), at 10 uM, qPCR, read-out: Induction of FOXO3-regulated genes: CAT normalized fold-change
# [6] = 24 h, Assay 10(m), at 10 uM, qPCR, read-out: Induction of FOXO3-regulated genes: GADD45A normalized fold-change
# [7] = 24 h, Assay 10(m), at 10 uM, qPCR, read-out: Induction of FOXO3-regulated genes: SESN1 normalized fold-change
# [8] = 10 μM, 24 hrs, WI-38 cells, qPCR, normalized to B2M, n = 4, read-out: CAT expression, normalized fold change (FOXO3-regulated gene)
# [9] = 10 μM, 24 hrs, WI-38 cells, qPCR, normalized to B2M, n = 4, read-out: SESN1 expression, normalized fold change (FOXO3-regulated gene)
# [10] = WI-38 cells, 10 μM, 24 hrs, n=4, qPCR normalized by B2M, read-out: DDB1 Normalized fold change
# [11] = WI-38 cells, 10 μM, 24 hrs, n=4, qPCR normalized by B2M, read-out: GADD45A Normalized fold change
# [12] = WI-38 cells, 10 μM, 24 hrs, n=4, qPCR normalized by B2M, read-out: SESN1 Normalized fold change
# [13] = fold change, qPCR, WI-38 cells, 10 μM, 24 hrs, read-out: Summary of effects on FOXO3-regulated genes: CAT
# [14] = fold change, qPCR, WI-38 cells, 10 μM, 24 hrs, read-out: Summary of effects on FOXO3-regulated genes: SESN1
# [15] = qPCR, WI-38 cells, 10 μM, n=4, 24 hrs, normalized by B2M, read-out: CAT Normalized fold change
# [16] = qPCR, WI-38 cells, 10 μM, n=4, 24 hrs, normalized by B2M, read-out: SOD2 Normalized fold change
# [17] = qPCR, WI-38 cells, 10 μM, n=4, 24 hrs, normalized by B2M, read-out: TXNIP Normalized fold change
# [18] = 10 μM, 24 hrs, WI-38 cells, qPCR, normalized to B2M, n = 4, read-out: GADD45A expression, normalized fold change (FOXO3-regulated gene)
# [19] = fold change, qPCR, WI-38 cells, 10 μM, 24 hrs, read-out: Summary of effects on FOXO3-regulated genes: GADD45A
SMILES,J = NRF2-dependency for H2O2-resistance (NRF2; score),J = NRF2-dependency for H2O2-resistance (NRF2; summary score),G = mTOR down-regulation (mTOR; 2-point score),G = mTOR down-regulation (mTOR; summary score),"Assay 7: H2O2-resistant, at 10 uM, validated by propidium iodide (PI) cell-death imaging (WI-38 cells; 10 uM)",cytotoxicity at 10 µM (WI-38 cells; [1]) [%],cytotoxicity at 10 µM (WI-38 cells; [2]) [%],cytotoxicity at 10 µM (WI-38 cells; [3]) [%],cytotoxicity at 10 µM (WI-38 cells; [4]) [%],"Induction of at least two of five FOXO3-regulated genes (SOD2, GADD45A, CAT, DDB1, TXNIP) (FOXO3; 10 μM, 24 hrs)",E = Potential FOXO3 Activation (FOXO3; 2-point score),fold induction at 10 µM (FOXO3; [6]),fold induction at 10 µM (FOXO3; [10]),fold induction at 10 µM (FOXO3; [11]),fold induction at 10 µM (FOXO3; [12]),fold induction at 10 µM (FOXO3; [15]),fold induction at 10 µM (FOXO3; [16]),fold induction at 10 µM (FOXO3; [17]),K = Sestrin induction (FOXO3),E = Potential FOXO3 Activation (FOXO3; summary score),other results
O=C(Nc1cccc(C(F)(F)F)c1)c1ccc([N+](=O)[O-])o1 [Gr-1E],0,0,0,0,YES,1.68,2.95,3.44,18.8,"significant induction; also recorded: significant, induction",0,0.62,1.39,0.752,1.4,1.45,1.46,2.02,0,0,"fold induction at 10 µM (FOXO3; [5]): 1.38; fold induction at 10 µM (FOXO3; [7]): 1.34; fold induction at 10 µM (FOXO3; 24 h, Assay 10(m), at 10 uM, qPCR, read-out: Induction of FOXO3-regulated genes: TXNIP normalized fold-change): 1.33; fold induction at 10 µM (FOXO3; [8]): 1.45; fold induction at 10 µM (FOXO3; [9]): 1.4; fold induction at 10 µM (FOXO3; 10 μM, 24 hrs, WI-38 cells, qPCR, normalized to B2M, n = 4, read-out: TXNIP expression, normalized fold change (FOXO3-regulated gene)): 2.02; fold induction at 10 µM (FOXO3; [13]): 1.45; fold induction at 10 µM (FOXO3; [14]): 1.4; fold induction at 10 µM (FOXO3; fold change, qPCR, WI-38 cells, 10 μM, 24 hrs, read-out: Summary of effects on FOXO3-regulated genes: TXNIP): 2.02"
NS(=O)(=O)c1ccc(NC(=O)c2ccc([N+](=O)[O-])o2)cc1 [Gr-1A],1,1,0,0,YES,1.44,3.18,7.49,22.6,"significant induction; also recorded: significant, induction; also recorded: induce FOXO3-regulated genes",0,–,1.35,1.27,2.12,1.31,1.5,1.23,1,0,"Survival of NRF2 siRNA-transfected cells in the absence of H2O2 (NRF2): could reduce the survival; NRF2-dependency for H2O2-resistance, at 10 uM - with H2O2, 2nd experiment (NRF2; 10 uM, experiment 2 (2nd), with H2O2): 2nd, partial.; NRF2-dependency for H2O2-resistance, 2nd experiment (NRF2; 10 uM, with H2O2, NRF2 knockdown in WI-38 cells, YES = resistance reduced by at least 50%, partial = 25% to 50%): partial; Assay 17: NRF2-dependency for H2O2-resistance (NRF2; 10 uM, YES/NO): YES; NRF2-dependency of H2O2-resistance (NRF2 siRNA knockdown) (NRF2; at least 2 of 3 independent experiments): significantly attenuate; viability of non-stressed cells, reduced by (NRF2; human, 24 h, 10 uM): by 30%); fold induction at 10 µM (FOXO3; [5]): 1.36; fold induction at 10 µM (FOXO3; 24 h, Assay 10(m), at 10 uM, qPCR, read-out: Induction of FOXO3-regulated genes: DDB1 normalized fold-change): 1.16; fold induction at 10 µM (FOXO3; [7]): 1.93; fold induction at 10 µM (FOXO3; WI-38, 24 h, read-out: SESN1 expression): > 1.5; fold induction at 10 µM (FOXO3; [8]): 1.31; fold induction at 10 µM (FOXO3; 10 μM, 24 hrs, WI-38 cells, qPCR, normalized to B2M, n = 4, read-out: DDB1 expression, normalized fold change (FOXO3-regulated gene)): 1.36; fold induction at 10 µM (FOXO3; [9]): 2.12; fold induction at 10 µM (FOXO3; [13]): 1.31; fold induction at 10 µM (FOXO3; fold change, qPCR, WI-38 cells, 10 μM, 24 hrs, read-out: Summary of effects on FOXO3-regulated genes: DDB1): 1.36; fold induction at 10 µM (FOXO3; [14]): 2.12"
Cc1cc(N)n(-c2ccccc2C(=O)O)n1 [Gr-6A],0,0,0,0,YES,4.38,–,–,15.6,–,0,0.79,1.05,0.787,1.18,1.2,0.868,1.14,0,0,fold induction at 10 µM (FOXO3; [18]): 0.79; fold induction at 10 µM (FOXO3; [19]): 0.79
[O-][n+]1onc2c3nsnc3c(Br)cc21 [O17],0,0,0,0,YES,0.8,2.83,–,6.6,–,0,0.85,1.04,0.846,1.11,1.11,0.997,0.801,0,0,fold induction at 10 µM (FOXO3; [18]): 0.85; fold induction at 10 µM (FOXO3; [19]): 0.85
